# In patent US20160326558A1, “Process for Stimulating Hyaluronic Acid Production with Ascorbic Acid Derivatives and the Composition Thereof” (CORUM INC., priority 2012, published 2016):
# “And” between values parts separate entries of the source, which are not always exact repeats. Equal values may be shown once.
# Tests used:
# Format in all cases: cell-based
# mouse fibroblast (3T3) [1] = assay: Stimulating hyaluronic acid production in mouse fibroblast, Echelon HA-ELISA (Example 1)
# Source text: (§1) Cell Line: 3T3 (BCRC 60071, purchased from Bioresource Collection and Research Center) Complete Medium (as positive control): DMEM medium with 10% Fetal Bovine Serum (DMEM purchased from Corning Incorporated and Caisson Labs; FBS purchased from Caisson Labs) Starvation Medium (as negative control): DMEM medium with 0.1% Bovine Serum (DMEM purchased from Corning Incorporated and Caisson Labs; FBS purchased from Caisson Labs) Hyaluronan Enzyme-Linked Immunosorbent Assay Kit (HA-ELISA) (Brand: Echelon/Cat No K-1200) Complete medium is used in cell seeding stage. The confluent 3T3 cells are rinsed with sterile D-PBS, and trypsinize all cells and perform cell counting. Then, dilute the cell density to 4E+04/mL and seed 0.5 mL cell liquid (equals to 2E+04 cells) each well in 24 well plates. Incubate 3T3 cells at 37° C., 5% CO2 for about 24 hours. Starvation medium is used in this stage. The 24-hour-cultured 3T3 cells are rinsed with sterile D-PBS and discarded rinse buffer. Controls and testing materials in different concentrations are respectively added into the 3T3 cells in 24 well plates. Then, the 3T3 cells are incubated at 37° C., with 5% CO2 for about 72 hours. After incubating for about 72 hours, transfer some supernatant of cells treated with controls and testing materials into new containers. Centrifuge the supernatants at 2000 rpm for 5˜10 minutes. The hyaluronic acid content of the centrifuged supernatants are respectively determined by Hyaluronan Enzyme-Linked Immunosorbent Assay Kit, and calculated with the following Formula 1. [formula]
# mouse fibroblast (3T3) [2] = assay: Hyaluronic acid content stimulated by 3-O-ethyl ascorbic acid and AA2G in mouse fibroblast (Table 6); details: for Hyaluronic Acid Content Stimulated, Average / Hyaluronic Acid Content Stimulated, single entries: vs negative control = 100%
# human fibroblast (Hs68) [3] = assay: Stimulating hyaluronic acid production in human fibroblast, R&D HA-ELISA (Example 4); details: for Hyaluronic Acid Content Stimulated, Average / Hyaluronic Acid Content Stimulated, single entries: 72 h, vs negative control = 100%
# Protocol: Complete medium is used in cell seeding stage. The confluent Hs68 cells are rinsed with sterile D-PBS, and trypsinize all cells and perform cell counting. Then, dilute the cell density to 4E+04/mL and seed 0.5 mL cell liquid (equals to 2E+04 cells) each well in 24 well plates. Incubate Hs68 cells at 37° C., 5% CO2 for about 24 hours. Starvation medium is used in this stage. The 24-hour-cultured Hs68 cells are rinsed with sterile D-PBS and discarded rinse buffer. Controls and testing materials in different concentrations are respectively added into the Hs68 cells in 24 well plates. Then, the Hs68 cells are incubated at 37° C., with 5% CO2 for about 72 hours. After incubating for about 72 hours, transfer some supernatant of cells treating with controls and testing materials into new containers. Centrifuge the supernatants at 2000 rpm for 5˜10 minutes. The hyaluronic acid content of the centrifuged supernatants are respectively determined by Hyaluronan Enzyme-Linked Immunosorbent Assay Kit, and calculated with the following Formula 2. [formula] In this example, we try another brand HA-ELISA kit (R&D; Cat No. DHYAL0) to study the reproducibility of the stimulatory effect. Excluding replacing the HA-ELISA kit, the materials and the procedures can be referred to the above Example 2.
# human fibroblast (Hs68) [4] = assay: Cell viability of human fibroblast (Example 2); details: 10000 ppm
# mouse fibroblast (3T3) [5] = assay: Cell viability of mouse fibroblast (Example 1); details: concentration larger than 7500 ppm
# human fibroblast (Hs68) [6] = assay: Stimulating hyaluronic acid production in human fibroblast, Echelon HA-ELISA (Example 2); details: for Hyaluronic Acid Content Stimulated, Average / Hyaluronic Acid Content Stimulated, single entries: 72 h, vs negative control = 100%
# Source text: as §1, with “Hs68” for “3T3”, “60038,” for “60071,”, “0.1% Fetal” for “0.1%”, “treating” for “treated”, “2.” for “1.”
# [7] = 5000 ppm, 72 h, vs negative control = 100%
smiles,measurement,setting,value
CCOC1=C(O)C(=O)O[C@@H]1[C@@H](O)CO [3-O-ethyl-ascorbic acid],stimulated hyaluronic acid production (in words),mouse fibroblast (3T3) [1]; 10-5000 ppm,efficiently increased
same,"Hyaluronic Acid Content Stimulated, Average","mouse fibroblast (3T3) [1]; 10 ppm, 72 h, vs negative control = 100%",164.6%
same,"Hyaluronic Acid Content Stimulated, Average","mouse fibroblast (3T3) [1]; 100 ppm, 72 h, vs negative control = 100%",133.1%
same,"Hyaluronic Acid Content Stimulated, Average","mouse fibroblast (3T3) [1]; 1000 ppm, 72 h, vs negative control = 100%",148.9%
same,"Hyaluronic Acid Content Stimulated, Average","mouse fibroblast (3T3) [1]; 2500 ppm, 72 h, vs negative control = 100%",165.0%
same,"Hyaluronic Acid Content Stimulated, Average",mouse fibroblast (3T3) [1]; [7],149.0%
same,"Hyaluronic Acid Content Stimulated, single entries",mouse fibroblast (3T3) [1]; [7],110.3% and 214.1% and 161.9% and 109.6%
same,"Hyaluronic Acid Content Stimulated, Average","mouse fibroblast (3T3) [1]; 7500 ppm, 72 h, vs negative control = 100%",91.0%
same,"Hyaluronic Acid Content Stimulated, Average","mouse fibroblast (3T3) [1]; 10000 ppm, 72 h, vs negative control = 100%",89.4%
same,"Hyaluronic Acid Content Stimulated, Average",mouse fibroblast (3T3) [2]; 10 ppm,122%
same,"Hyaluronic Acid Content Stimulated, single entries",mouse fibroblast (3T3) [2]; 10 ppm,125% and 122% and 118%
same,"Hyaluronic Acid Content Stimulated, Average",mouse fibroblast (3T3) [2]; 100 ppm,138%
same,"Hyaluronic Acid Content Stimulated, single entries",mouse fibroblast (3T3) [2]; 100 ppm,115% and 161% and 138%
same,"Hyaluronic Acid Content Stimulated, Average",mouse fibroblast (3T3) [2]; 1000 ppm,171%
same,"Hyaluronic Acid Content Stimulated, single entries",mouse fibroblast (3T3) [2]; 1000 ppm,180% and 165% and 168%
same,stimulatory of producing hyaluronic acid (in words),"mouse fibroblast (3T3) [2]; Table 6, 10-1000 ppm",helpful to the stimulatory of producing hyaluronic acid
same,"Hyaluronic Acid Content Stimulated, Average",human fibroblast (Hs68) [3]; 1.25 ppm,112.6%
same,"Hyaluronic Acid Content Stimulated, single entries",human fibroblast (Hs68) [3]; 1.25 ppm,102.1% and 126.8% and 102.4% and 119.0%
same,"Hyaluronic Acid Content Stimulated, Average",human fibroblast (Hs68) [3]; 2.5 ppm,136.7%
same,"Hyaluronic Acid Content Stimulated, single entries",human fibroblast (Hs68) [3]; 2.5 ppm,149.7% and 125.3% and 111.4% and 160.5%
same,"Hyaluronic Acid Content Stimulated, Average",human fibroblast (Hs68) [3]; 5 ppm,123.1%
same,"Hyaluronic Acid Content Stimulated, single entries",human fibroblast (Hs68) [3]; 5 ppm,110.6% and 110.9% and 103.8% and 167.0%
same,"Hyaluronic Acid Content Stimulated, Average",human fibroblast (Hs68) [3]; 7.5 ppm,134.0%
same,"Hyaluronic Acid Content Stimulated, Average",human fibroblast (Hs68) [3]; 10 ppm,97.7%
same,"Hyaluronic Acid Content Stimulated, single entries",human fibroblast (Hs68) [3]; 10 ppm,89.1% and 101.2% and 91.2% and 109.5%
same,"Hyaluronic Acid Content Stimulated, Average",human fibroblast (Hs68) [3]; 100 ppm,121.9%
same,"Hyaluronic Acid Content Stimulated, Average",human fibroblast (Hs68) [3]; 1000 ppm,133.9%
same,"Hyaluronic Acid Content Stimulated, single entries",human fibroblast (Hs68) [3]; 1000 ppm,125.4% and 134.8% and 122.6% and 152.7%
same,"Hyaluronic Acid Content Stimulated, Average",human fibroblast (Hs68) [3]; 2500 ppm,103.6%
same,"Hyaluronic Acid Content Stimulated, single entries",human fibroblast (Hs68) [3]; 2500 ppm,99.2% and 96.7% and 78.7% and 140.0%
same,"Hyaluronic Acid Content Stimulated, Average",human fibroblast (Hs68) [3]; 5000 ppm,91.0%
same,"Hyaluronic Acid Content Stimulated, single entries",human fibroblast (Hs68) [3]; 5000 ppm,110.0% and 70.6% and 103.2% and 80.3%
same,"Hyaluronic Acid Content Stimulated, Average",human fibroblast (Hs68) [3]; 7500 ppm,73.1%
same,"Hyaluronic Acid Content Stimulated, Average",human fibroblast (Hs68) [3]; 10000 ppm,40.7%
same,"Hyaluronic Acid Content Stimulated, single entries",human fibroblast (Hs68) [3]; 10000 ppm,50.9% and 32.1% and 37.2% and 42.4%
same,"stimulated hyaluronic acid production, dose dependence (in words)",human fibroblast (Hs68) [3]; about 1000-10 ppm,dose-dependently
same,cell viability,human fibroblast (Hs68) [4],inhibited
same,cell viability,mouse fibroblast (3T3) [5],inhibited
same,"Hyaluronic Acid Content Stimulated, Average",human fibroblast (Hs68) [6]; 10 ppm,107.2%
same,"Hyaluronic Acid Content Stimulated, single entries",human fibroblast (Hs68) [6]; 10 ppm,92.7% and 123.3% and 105.7%
same,"Hyaluronic Acid Content Stimulated, Average",human fibroblast (Hs68) [6]; 100 ppm,148.8%
same,"Hyaluronic Acid Content Stimulated, single entries",human fibroblast (Hs68) [6]; 100 ppm,200.9% and 130.3% and 115.1%
same,"stimulated hyaluronic acid production, dose dependence (in words)",human fibroblast (Hs68) [6]; 1000-10 ppm,dose-dependently
same,"Hyaluronic Acid Content Stimulated, Average",human fibroblast (Hs68) [6]; 1000 ppm,182.7%
same,"Hyaluronic Acid Content Stimulated, single entries",human fibroblast (Hs68) [6]; 1000 ppm,170.1% and 172.6%
same,"Hyaluronic Acid Content Stimulated, Average",human fibroblast (Hs68) [6]; 10000 ppm,32.5%
